Reference: patent US8093210B2, “Treatment of sepsis with 5-ethyl-1-phenyl-2(1H)-pyridone” (Solanan, Inc., priority 2008, dated 2012)
“And” between values parts separate entries of the source, which are not always exact repeats. Equal entries are not always repeated.

How the values were obtained:
[1] = tested on: LPS/D-galactosamine model of septic shock; assay: Lethal LPS/D-galactosamine-induced shock, survival of mice (Example 1); format: in vivo; details: for mortality: 72 hrs post-treatment
Procedure: Mice were treated with 5-EPP after inducing shock with lipopolysaccharide (LPS) pursuant to established models for lethal LPS-induced shock. The method described by Galanos C, Freudenberg M A, Reutter W. Proc Natl Acad Sci USA. 1979 November; 76 (11):5939-43 was followed. The survival of the mice after treatment with various doses of the agent in LPS/D-galactosamine model of septic shock was monitored. All agents were injected simultaneously via the intraperitoneal route and the response compared to a placebo agent (saline).
All data were analyzed by Fisher's exact test (Prism™ for Window 4.02, Graphpad Software, Inc., San Diego, Calif.). A value of P<0.05 was considered to be statistically significant.
Table 1 clearly illustrates that 5-ethyl-1-phenyl-2(1H)-pyridone (5-EPP) protected mice from lethal LPS/D-galactosamine-induced shock at 72 hrs post-treatment.

[2] = tested on: cecal ligation and puncture (CLP) model of sepsis; assay: Serum biomarkers and recoverable serum volume in cecal ligation and puncture (CLP) model of sepsis (Example 4); format: in vivo, Male Swiss-Webster mice; details: for level of blood urea nitrogen (BUN) / recoverable blood-serum volume (average volume of serum) / serum level of alanine transaminase (ALT) / serum level of creatine kinase / serum level of glucose: 200 mg/kg ip 2 h before CLP, mean ± SEM
Procedure: Cecal ligation and puncture (CLP) is a more advanced model of septic shock than those involving lipopolysaccharide (LPS). In this model, as described by Wichterman K A, Baue A E, Chaudry I H (J Surg Res. 1980, 29; 189-201), mice are given intraperitoneal (IP) injections of the test compound or saline (control) prior to the beginning of the surgery. The mice are then anesthetized and a laparotomy is performed. The cecum is isolated and separated from the rest of the intestines by tying it at its base with a suturing thread. The cecum is then punctured with a needle. This facilitates influx of the colonic microflora into the abdominal cavity, which results in polymicrobial-induced peritonitis. Unlike the endotoxin model of septic shock, which is initiated by purified bacterial cell wall products, lipopolysaccharide (LPS), that simulates an acute septic shock, the CLP model more closely mimics clinically encountered signs of septic shock seen in humans as it is triggered by living bacteria.
Male Swiss-Webster mice, seven weeks old, were injected with 5-EPP (200 mg/kg) or saline (control) by intraperitoneal route two hours prior to the beginning of the surgery. They were anesthetized by a mixture of xylazine and ketamine, and a laparotomy was performed. The cecum was separated from the rest of the intestine, ligated with suture, and then punctured with an 18 gauge needle. Blood was collected by cardiac puncture 3, 6, or 12 hours after CLP and the serum isolated by centrifugation. Analysis of serum transaminases, blood urea nitrogen, creatine kinase, and glucose was carried out by a commercial company (Idexx Laboratories, West Sacramento, Calif.).
The results are reported as the mean±standard error of the mean with the number of animals in parentheses for each group. The statistical analysis for differences between saline control and 5-EPP pretreated mice was performed using […] (Prism™ for Windows 4.02, Graphpad Software, Inc., San Diego, Calif.). A value of P<0.05 was considered to be the minimum level of statistical significance. Reference values were determined by analyzing serum from mice injected with saline but not subjected to the CLP procedure.

[3] = tested on: IL-6; assay: Serum IL-6 (ELISA) in LPS/D-galactosamine model of sepsis (Example 5); format: in vivo, mice; details: 90 minutes after the treatment
Procedure: Mice were treated simultaneously with LPS (10 μg/kg) and D-galactosamine (600 mg/kg) (Galanos C, Freudenberg M A, Reutter W. […] They were anesthetized with halothane and blood was collected at different times by cardiac puncture and centrifuged to separate serum. The serum levels of alanine transaminase (ALT) and aspartate transaminase (AST) were measured by a commercial diagnostic company (Idexx Laboratories). The serum levels of tumor necrosis factor-alpha (TNF-α), interleukin-6 (IL-6) and interleukin-12 (IL-12) were determined by commercially available mouse enzyme-linked immunosorbent assay (ELISA) kits (BD BioSciences, San Jose, Calif.).
The methodology utilized in Example 4 was used to measure and analyze the serum enzyme data for statistical significance. The serum levels of proinflammatory cytokines between the 5-EPP treated and saline control groups were analyzed for statistical significance by one-way ANOVA and a Tukey's multiple comparison test (Prism™ for Windows 4.02, Graphpad Software, Inc. San Diego, Calif.).

[4] = tested on: THP-1 cells; assay: MTS cytotoxicity analysis on THP-1 cells; format: cell-based; details: LPS 1 ng/mL and 5-EPP 0-500 μg/mL for 12 hours
Procedure: Cytotoxicity analysis was performed on THP-1 cells treated with various concentrations of 5-EPP using the MTS (3-(4,5-dimethylthiazol-2-yl)-5-(3-carboxymethoxyphenyl)-2-(4-sulfophenyl)-2H-tetrazolium, inner salt) assay (Promega, Madison, Wis.).

[5] = pH of 20 mg/mL solutions (Example 9); format: physicochemical
Procedure: The pH of two freshly prepared solutions of the compound each at 20 mg/mL concentration was measured with a calibrated Mettler MP-220 pH meter equipped with a pH electrode (model 413). The pH of the solution made in water averaged 7.4 as compared to solutions made in isotonic saline in which the pH averaged 6.21 using triplicate samples in each case, as shown in the table below.

CCc1ccc(=O)n(-c2ccccc2)c1 [5-EPP, 5-ethyl-1-phenyl-2-(1H)-pyridone]
mortality ([1]; 25 mg/kg i.p. simultaneously with LPS/D-galactosamine): 30% mortality
mortality ([1]; 50 mg/kg i.p. simultaneously with LPS/D-galactosamine): 5% mortality
mortality ([1]; 100 mg/kg i.p. simultaneously with LPS/D-galactosamine): 0% mortality
onset of lethal shock ([1]; lowest dose (25 mg/kg)): delay of the onset of lethal shock
level of blood urea nitrogen (BUN) ([2]; 3 Hours Post-CLP): 20.8 ± 0.1 (11) mg/dL
recoverable blood-serum volume (average volume of serum) ([2]; 3 Hours Post-CLP): 238.8 ± 20.11 (13) microliter
serum level of alanine transaminase (ALT) ([2]; 3 Hours Post-CLP): 159.1 ± 21.2 (11) U/L
serum level of creatine kinase ([2]; 3 Hours Post-CLP): 2790.4 ± 370.8 (11) U/L
serum level of glucose ([2]; 3 Hours Post-CLP): 303.9 ± 30.8 (11) mg/dL
level of blood urea nitrogen (BUN) ([2]; 6 Hours Post-CLP): 19.4 ± 1.0 (12) mg/dL
recoverable blood-serum volume (average volume of serum) ([2]; 6 Hours Post-CLP): 219.6 ± 16.70 (12) microliter
serum level of alanine transaminase (ALT) ([2]; 6 Hours Post-CLP): 128.9 ± 28.7 (12) U/L
serum level of creatine kinase ([2]; 6 Hours Post-CLP): 1950.3 ± 244.1 (12) U/L
serum level of glucose ([2]; 6 Hours Post-CLP): 116.7 ± 7.7 (12) mg/dL
level of blood urea nitrogen (BUN) ([2]; 12 Hours Post-CLP): 23 ± 2.3 (12) mg/dL
recoverable blood-serum volume (average volume of serum) ([2]; 12 Hours Post-CLP): 282.7 ± 27.70 (13) microliter
serum level of alanine transaminase (ALT) ([2]; 12 Hours Post-CLP): 148.2 ± 12.5 (12) U/L
serum level of creatine kinase ([2]; 12 Hours Post-CLP): 778.5 ± 91.6 (12) U/L
serum level of glucose ([2]; 12 Hours Post-CLP): 102.9 ± 5.9 (12) mg/dL
serum to blood ratio versus saline-control CLP mice ([2]; 200 mg/kg ip, at any time, data not shown): no significant difference
serum level of IL-6 ([3]; 50 mg/kg): 9,980 ± 564 pg/mL
serum level of IL-6 ([3]; 100 mg/kg): 5,111 ± 343 pg/mL
serum level of IL-6 ([3]; 200 mg/kg): 3,578 ± 421 pg/mL
concentration at which cytotoxicity appears (no cytotoxicity below) [4]: at least 300 μg/mL
pH of the solution, average ([5]; 20 mg/mL in isotonic saline): 6.21
pH of the solution, average ([5]; 20 mg/mL in water): 7.4
pH ([5]; DI Water, final 5-EPP 20.0 mg/mL): 7.29 and 7.24
pH ([5]; Isotonic saline, final 5-EPP 20.0 mg/mL): 6.13
pH ([5]; Isotonic saline, final 5-EPP 20.1 mg/mL): 6.20
